Laboratory results: patent publication US20240189289A1, “INHIBITORS OF EPHB3 SIGNALING” (The Brigham and Women`s Hospital, Inc., priority 2021, published 2024)
Like-named read-outs stand apart in the source and are kept apart here.

What was measured:
Assay type in all cases: biochemical
EphA2 = EphA2 (Homo sapiens, UniProt P29317); experiment: Eph receptor kinase activity assay (radiometric), EphA2; conditions: for remaining activity at 0.01 µM: 10 nM compound, read-out: EphA2 % act 10 nM; for remaining activity at 0.1 µM: 100 nM compound, read-out: EphA2 % act 100 nM; for remaining activity at 0.3 µM: 300 nM compound, read-out: EphA2 % act 300 nM; for remaining activity at 0.03 µM: 30 nM compound, read-out: EphA2 % act 30 nM
Chain of EphA2 (P29317 24-976): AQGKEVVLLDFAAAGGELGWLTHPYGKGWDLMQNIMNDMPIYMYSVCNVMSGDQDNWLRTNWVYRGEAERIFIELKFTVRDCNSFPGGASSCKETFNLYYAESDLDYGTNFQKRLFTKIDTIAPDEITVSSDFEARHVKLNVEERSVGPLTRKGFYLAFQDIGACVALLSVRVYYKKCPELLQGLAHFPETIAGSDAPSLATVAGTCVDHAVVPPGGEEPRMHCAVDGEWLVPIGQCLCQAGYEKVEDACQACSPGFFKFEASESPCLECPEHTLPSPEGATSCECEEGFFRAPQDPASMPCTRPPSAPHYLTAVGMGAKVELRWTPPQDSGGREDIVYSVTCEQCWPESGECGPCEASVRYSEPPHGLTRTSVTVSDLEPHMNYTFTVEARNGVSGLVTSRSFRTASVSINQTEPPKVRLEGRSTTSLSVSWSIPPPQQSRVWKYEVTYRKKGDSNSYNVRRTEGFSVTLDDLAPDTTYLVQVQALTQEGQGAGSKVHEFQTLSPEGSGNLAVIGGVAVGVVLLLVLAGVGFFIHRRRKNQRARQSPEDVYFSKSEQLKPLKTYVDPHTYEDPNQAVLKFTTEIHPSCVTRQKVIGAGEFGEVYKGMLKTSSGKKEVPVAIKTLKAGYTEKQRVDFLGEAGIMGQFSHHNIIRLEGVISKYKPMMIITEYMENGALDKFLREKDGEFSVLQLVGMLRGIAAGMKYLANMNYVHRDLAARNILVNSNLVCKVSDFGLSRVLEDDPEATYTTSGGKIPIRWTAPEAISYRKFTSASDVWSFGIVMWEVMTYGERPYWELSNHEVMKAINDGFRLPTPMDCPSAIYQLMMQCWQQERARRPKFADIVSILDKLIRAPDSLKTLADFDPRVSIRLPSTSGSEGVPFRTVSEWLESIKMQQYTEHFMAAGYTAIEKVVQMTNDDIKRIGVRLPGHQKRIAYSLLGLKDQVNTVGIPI

EphA4 = EphA4 (Homo sapiens, UniProt P54764); experiment: Eph receptor kinase activity assay (radiometric), EphA4; conditions: for remaining activity at 0.01 µM: 10 nM compound, read-out: EphA4 % act 10 nM; for remaining activity at 0.1 µM: 100 nM compound, read-out: EphA4 % act 100 nM; for remaining activity at 0.3 µM: 300 nM compound, read-out: EphA4 % act 300 nM; for remaining activity at 0.03 µM: 30 nM compound, read-out: EphA4 % act 30 nM
Chain of EphA4 (P54764 20-986): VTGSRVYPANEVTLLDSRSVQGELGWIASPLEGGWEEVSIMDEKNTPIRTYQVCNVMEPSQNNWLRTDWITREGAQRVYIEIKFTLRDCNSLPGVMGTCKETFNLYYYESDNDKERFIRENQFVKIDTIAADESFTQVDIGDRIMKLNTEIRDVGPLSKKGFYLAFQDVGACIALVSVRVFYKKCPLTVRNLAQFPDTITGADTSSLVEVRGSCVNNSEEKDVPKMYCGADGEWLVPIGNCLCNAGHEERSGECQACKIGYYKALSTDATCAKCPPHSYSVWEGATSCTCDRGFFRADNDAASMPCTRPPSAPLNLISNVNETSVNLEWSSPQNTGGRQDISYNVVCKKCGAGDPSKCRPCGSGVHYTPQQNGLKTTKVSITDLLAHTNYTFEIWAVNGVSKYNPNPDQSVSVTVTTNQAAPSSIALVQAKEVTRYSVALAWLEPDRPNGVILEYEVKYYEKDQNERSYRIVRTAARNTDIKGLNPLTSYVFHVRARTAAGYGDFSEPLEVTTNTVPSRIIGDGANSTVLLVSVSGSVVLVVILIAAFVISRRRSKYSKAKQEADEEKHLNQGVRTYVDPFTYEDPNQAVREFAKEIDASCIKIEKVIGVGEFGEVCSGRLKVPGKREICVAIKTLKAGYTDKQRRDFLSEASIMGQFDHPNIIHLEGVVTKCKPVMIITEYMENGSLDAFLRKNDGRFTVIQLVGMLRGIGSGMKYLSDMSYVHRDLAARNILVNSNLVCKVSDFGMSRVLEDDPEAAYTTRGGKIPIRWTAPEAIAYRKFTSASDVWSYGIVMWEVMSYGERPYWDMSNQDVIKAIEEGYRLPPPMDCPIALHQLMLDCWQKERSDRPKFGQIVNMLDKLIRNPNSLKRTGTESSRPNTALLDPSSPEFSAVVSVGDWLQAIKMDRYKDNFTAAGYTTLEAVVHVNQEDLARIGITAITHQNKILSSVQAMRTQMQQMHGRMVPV

EphB3 = biological target: T1, EphB3 (Homo sapiens, UniProt P54753); experiment: EphB3 radiometric kinase activity assay (33P ATP filter binding); conditions: for remaining activity at 0.01 µM: 10 nM compound, read-out: EphB3 % act 10 nM; for remaining activity at 0.1 µM: 100 nM compound, read-out: EphB3 % act 100 nM; for remaining activity at 0.3 µM: 300 nM compound, read-out: EphB3 % act 300 nM; for remaining activity at 0.03 µM: 30 nM compound, read-out: EphB3 % act 30 nM; for IC50: read-out: EphB3 (nM) IC50
T1 sequence (P54753 34-998): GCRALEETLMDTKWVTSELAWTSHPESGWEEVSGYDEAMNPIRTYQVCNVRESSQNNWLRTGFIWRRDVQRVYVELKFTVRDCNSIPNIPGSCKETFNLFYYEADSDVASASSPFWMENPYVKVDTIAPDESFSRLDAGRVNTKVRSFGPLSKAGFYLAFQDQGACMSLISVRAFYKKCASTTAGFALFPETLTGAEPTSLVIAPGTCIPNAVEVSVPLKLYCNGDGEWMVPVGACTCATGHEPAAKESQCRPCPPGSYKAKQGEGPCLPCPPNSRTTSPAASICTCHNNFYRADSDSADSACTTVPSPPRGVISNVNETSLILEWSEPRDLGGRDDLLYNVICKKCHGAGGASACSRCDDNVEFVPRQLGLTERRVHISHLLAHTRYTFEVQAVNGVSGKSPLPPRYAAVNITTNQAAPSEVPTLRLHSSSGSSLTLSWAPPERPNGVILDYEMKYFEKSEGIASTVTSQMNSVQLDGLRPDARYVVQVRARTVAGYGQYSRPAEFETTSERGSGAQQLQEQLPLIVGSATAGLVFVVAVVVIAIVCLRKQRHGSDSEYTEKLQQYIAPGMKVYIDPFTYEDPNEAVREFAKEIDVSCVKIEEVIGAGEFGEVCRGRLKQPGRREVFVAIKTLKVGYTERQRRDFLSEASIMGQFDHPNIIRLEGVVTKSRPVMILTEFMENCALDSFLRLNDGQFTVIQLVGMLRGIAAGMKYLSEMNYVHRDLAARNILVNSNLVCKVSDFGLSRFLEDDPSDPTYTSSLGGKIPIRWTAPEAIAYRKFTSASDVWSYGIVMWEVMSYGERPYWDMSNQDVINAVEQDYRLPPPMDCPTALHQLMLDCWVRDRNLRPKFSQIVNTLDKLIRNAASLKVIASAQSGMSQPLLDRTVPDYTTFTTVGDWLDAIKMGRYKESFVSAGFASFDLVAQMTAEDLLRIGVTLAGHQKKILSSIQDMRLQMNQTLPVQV
Procedure: EphB3 radiometric kinase activity assay. To study the EphB3 kinase activity, a radioactive filter binding assay using 33P ATP was performed as described at the […] International Centre for Kinase profiling. […] The mix was harvested onto P81 filter plates and counts were read on a Topcount NXT.

EphB4 = biological target: T2, EphB4 (Homo sapiens, UniProt P54760); experiment: Eph receptor kinase activity assay (radiometric), EphB4; conditions: for remaining activity at 0.01 µM: 10 nM compound, read-out: EphB4 % act 10 nM; for remaining activity at 0.1 µM: 100 nM compound, read-out: EphB4 % act 100 nM; for remaining activity at 0.3 µM: 300 nM compound, read-out: EphB4 % act 300 nM; for remaining activity at 0.03 µM: 30 nM compound, read-out: EphB4 % act 30 nM
T2 sequence (P54760 16-987): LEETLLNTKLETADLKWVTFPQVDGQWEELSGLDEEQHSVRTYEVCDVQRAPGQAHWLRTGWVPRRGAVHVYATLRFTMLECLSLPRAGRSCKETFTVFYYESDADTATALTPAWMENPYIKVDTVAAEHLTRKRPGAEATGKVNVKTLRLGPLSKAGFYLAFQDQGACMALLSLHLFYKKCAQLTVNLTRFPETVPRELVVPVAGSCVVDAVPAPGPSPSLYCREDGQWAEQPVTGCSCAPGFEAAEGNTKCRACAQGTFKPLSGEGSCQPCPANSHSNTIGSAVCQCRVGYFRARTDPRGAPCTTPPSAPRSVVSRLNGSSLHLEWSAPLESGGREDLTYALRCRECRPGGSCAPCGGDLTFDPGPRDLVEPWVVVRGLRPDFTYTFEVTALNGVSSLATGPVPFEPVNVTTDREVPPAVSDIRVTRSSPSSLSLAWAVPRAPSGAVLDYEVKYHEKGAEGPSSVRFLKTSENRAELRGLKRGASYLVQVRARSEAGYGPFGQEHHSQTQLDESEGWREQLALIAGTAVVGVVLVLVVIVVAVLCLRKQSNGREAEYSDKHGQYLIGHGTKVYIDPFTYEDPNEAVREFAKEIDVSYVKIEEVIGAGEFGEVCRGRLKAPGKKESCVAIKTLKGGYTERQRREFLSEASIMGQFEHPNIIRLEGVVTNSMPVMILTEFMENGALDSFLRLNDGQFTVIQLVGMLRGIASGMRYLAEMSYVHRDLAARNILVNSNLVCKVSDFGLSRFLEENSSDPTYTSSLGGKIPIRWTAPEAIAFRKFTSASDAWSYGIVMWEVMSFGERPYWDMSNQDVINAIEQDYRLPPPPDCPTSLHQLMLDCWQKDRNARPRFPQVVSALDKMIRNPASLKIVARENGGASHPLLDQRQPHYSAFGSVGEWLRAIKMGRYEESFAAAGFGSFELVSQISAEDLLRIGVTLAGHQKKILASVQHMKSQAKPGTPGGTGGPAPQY

| Structure (SMILES) | remaining activity at 0.01 µM (EphA2) [%] | remaining activity at 0.1 µM (EphA2) [%] | remaining activity at 0.3 µM (EphA2) [%] | remaining activity at 0.01 µM (EphA4) [%] | remaining activity at 0.1 µM (EphA4) [%] | remaining activity at 0.3 µM (EphA4) [%] | remaining activity at 0.01 µM (EphB3) [%] | remaining activity at 0.1 µM (EphB3) [%] | remaining activity at 0.3 µM (EphB3) [%] | remaining activity at 0.01 µM (EphB4) [%] | remaining activity at 0.1 µM (EphB4) [%] | remaining activity at 0.3 µM (EphB4) [%] | other results |
| --- | --- | --- | --- | --- | --- | --- | --- | --- | --- | --- | --- | --- | --- |
| NCc1cccc(-c2ccc3ncc(C(=O)Nc4ccccc4Cl)n3c2)c1 [compound 108, 6-(3-(Aminomethyl)phenyl)-N-(2-chlorophenyl)imidazo[1,2-a]pyridine-3-carboxamide] | 55 | 25 | 11 | 36 | 12 | 6 | 46 | 7 | 4 | 62 | 12 | 2 |  |
| NCc1ccc(-c2ccc3ncc(C(=O)Nc4ccccc4Cl)n3c2)cc1 [compound 109, 6-(4-(Aminomethyl)phenyl)-N-(2-chlorophenyl)imidazo[1,2-a]pyridine-3-carboxamide] | 77 | 11 | 0 | 24 | 8 | 5 | 22 | 6 | 4 | 22 | 6 | 3 |  |
| NC(=O)c1cccc(-c2ccc3ncc(C(=O)Nc4ccccc4Cl)n3c2)c1 [compound 110, 6-(3-Carbamoylphenyl)-N-(2-chlorophenyl)imidazo[1,2-a]pyridine-3-carboxamide] | 71 | 46 | 21 | 65 | 36 | 12 | 58 | 39 | 7 | 75 | 48 | 3 |  |
| O=C(Nc1ccccc1Cl)c1cnc2ccc(-c3ccccn3)cn12 [compound 112, N-(2-chlorophenyl)-6-(pyridin-2-yl)imidazo[1,2-a]pyridine-3-carboxamide] | 53 | 33 | 14 | 50 | 25 | 12 | 50 | 14 | 7 | 37 | 7 | 2 |  |
| O=C(Nc1ccccc1Cl)c1cnc2ccc(-c3cccnc3)cn12 [compound 113, N-(2-Chlorophenyl)-6-(pyridin-3-yl)imidazo[1,2-a]pyridine-3-carboxamide] | 52 | 29 | 17 | 53 | 26 | 19 | 49 | 16 | 11 | 30 | 7 | 4 |  |
| O=C(Nc1ccccc1Cl)c1cnc2ccc(-c3ccncc3)cn12 [compound 114, N-(2-Chlorophenyl)-6-(pyridin-4-yl)imidazo[1,2-a]pyridine-3-carboxamide] | 51 | 32 | 14 | 49 | 21 | 10 | 52 | 13 | 5 | 39 | 4 | 4 |  |
| O=C(Nc1ccccc1Cl)c1cnc2ccc(-c3ncccn3)cn12 [compound 115, N-(2-Chlorophenyl)-6-(pyrimidin-2-yl)imidazo[1,2-a]pyridine-3-carboxamide] | 115 | 67 | 40 | 104 | 54 | 34 | 108 | 55 | 28 | 89 | 32 | 9 |  |
| O=C(Nc1ccccc1Cl)c1cnc2ccc(-c3ccccc3O)cn12 [compound 116, N-(2-chlorophenyl)-6-(2-hydroxyphenyl)imidazo[1,2-a]pyridine-3-carboxamide] | 76.4 | 61.3 |  | 99.5 | 82.4 |  | 112 | 42.9 |  | 96.5 | 103 |  | remaining activity at 0.03 µM (EphA2): 84%; IC50 (EphA2; Table 2, Example 12): 345 nM; remaining activity at 0.03 µM (EphA4): 77%; IC50 (EphA4; Table 2, Example 12): 248 nM; remaining activity at 0.03 µM (EphB3): 65.5%; IC50 (EphB3; Table 2, Example 12): 60 nM; remaining activity at 0.03 µM (EphB4): 103%; IC50 (EphB4; Table 2, Example 12): 687 nM |
| COc1cccc(NC(=O)c2cnc3ccc(C4CCNCC4)cn23)c1Cl [compound 117, N-(2-Chloro-3-methoxyphenyl)-6-(piperidin-4-yl)imidazo[1,2-a]pyridine-3-carboxamide] | 95.8 | 80.8 |  | 74.7 | 89.8 |  | 110 | 102 |  | 104 | 86.7 |  | remaining activity at 0.03 µM (EphA2): 83.8%; IC50 (EphA2; Table 3, Example 13): < 10 nM; remaining activity at 0.03 µM (EphA4): 75.9%; IC50 (EphA4; Table 3, Example 13): < 10 nM; remaining activity at 0.03 µM (EphB3): 110%; IC50 (EphB3; Table 3, Example 13): < 10 nM; remaining activity at 0.03 µM (EphB4): 95.6%; IC50 (EphB4; Table 3, Example 13): < 10 nM |
